# Reference: PMC8406418 (Journal of Natural Products, 2021)
# Where “and” joins values, the source holds several entries; their conditions need not be identical. Equal values may be shown once. Read-outs that look alike come from different tables or passages of the source. Where a SMILES comes first, the peptide text is derived from it. Bridges are numbered along the chain shown (N, C = ends).
# What was measured:
# mouse KOR [1] = target: T1, mouse KOR (Mus musculus, UniProt P33534)
# mouse KOR [2] = target: T1, mouse KOR; test: cell-based; settings: for Emax: HEK293, read-out: Emax cAMP inhibition
# [3] = tested on: human T-cell proliferation; parameters: method as in PMID 23840803; settings: cited from earlier work
# mouse KOR [4] = target: T1, mouse KOR; test: biochemical
# mouse KOR [5] = target: T1, mouse KOR; assay type: cell-based; parameters: expressed in transfected cells; host or cells: HEK293 (transient, jetPRIME)
# [6] = tested on: untransfected HEK 293 cells; assay type: cell-based
# T1 sequence (P33534 whole entry): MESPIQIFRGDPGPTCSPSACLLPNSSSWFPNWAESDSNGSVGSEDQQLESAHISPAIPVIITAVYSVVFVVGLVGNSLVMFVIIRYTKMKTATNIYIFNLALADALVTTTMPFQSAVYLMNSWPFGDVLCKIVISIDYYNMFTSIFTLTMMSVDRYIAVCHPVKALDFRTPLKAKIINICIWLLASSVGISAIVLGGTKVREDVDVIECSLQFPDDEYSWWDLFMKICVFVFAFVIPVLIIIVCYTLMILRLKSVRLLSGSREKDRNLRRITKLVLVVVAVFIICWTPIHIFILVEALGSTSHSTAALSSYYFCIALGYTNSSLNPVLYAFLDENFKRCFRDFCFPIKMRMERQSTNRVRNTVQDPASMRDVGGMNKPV
structure (smiles),measurement,setting,value
CC[C@H]1CN2CCc3cc(OC)c(OC)cc3[C@@H]2C[C@@H]1C[C@H]1NCCc2cc(OC)c(OC)cc21 [Emetine],displacement of [3H]-DPN,"mouse KOR [1]; up to concentrations of 10 μM, 1 nM [3H]-DPN",did not displace the radioligand
"CC(C)C[C@@H]1NC(=O)CNC(=O)[C@H](CC(N)=O)NC(=O)[C@H](CCCNC(=N)N)NC(=O)[C@H]([C@@H](C)O)NC(=O)[C@@H]2CSSC[C@@H]3NC(=O)[C@H]([C@@H](C)O)NC(=O)CNC(=O)CNC(=O)[C@H](C(C)C)NC(=O)[C@@H]4CSSC[C@H](NC(=O)[C@H](CCCCN)NC(=O)[C@H](CSSC[C@H](NC(=O)[C@H](C(C)C)NC(=O)[C@@H]5CCCN5C1=O)C(=O)NCC(=O)N[C@@H](CCC(=O)O)C(=O)N[C@@H]([C@@H](C)O)C(=O)N4)NC(=O)CNC(=O)[C@@H]1CCCN1C(=O)[C@H]([C@@H](C)O)NC(=O)[C@H](CC(N)=O)NC3=O)C(=O)N[C@@H](CO)C(=O)N[C@@H](Cc1c[nH]c3ccccc13)C(=O)N1CCC[C@H]1C(=O)N[C@@H](C(C)C)C(=O)N2 [T20K, [T20K]kalata B1] (cyclo(CGETCVGGTCNTPGCKCSWPVCTRNGLPV); disulfide 1-15, 5-17, 10-22)",increase in basal cAMP production,mouse KOR [2],~50%
same,increase in efficacy of dyn A1–13 (cAMP),mouse KOR [2],30–60%
same,EC50,mouse KOR [2]; EC50 cAMP inhibition,24 µM and ~24 µM
same,Emax,mouse KOR [2],105 ± 5%
same,potency to suppress lymphocyte proliferation,[3],2 to 4 µM
same,Ki,mouse KOR [4],2 µM and ~2 µM
same,β-arrestin-2 recruitment (interaction of β-arrestin-2 and KOR),mouse KOR [5],no interaction of β-arrestin-2 and KOR was detected
"CC[C@H](C)[C@@H]1NC(=O)[C@H](C(C)C)NC(=O)[C@H]([C@@H](C)O)NC(=O)[C@H](CO)NC(=O)[C@H](Cc2ccccc2)NC(=O)[C@@H]2CSSC[C@@H]3NC(=O)[C@H](C(C)C)NC(=O)[C@H](CCCCN)NC(=O)[C@H](CC(N)=O)NC(=O)[C@H](CCCCN)NC(=O)[C@@H]4CSSC[C@H](NC(=O)[C@H](CO)NC(=O)[C@H](CCC(=O)O)NC(=O)CNC(=O)[C@H](CSSC[C@H](NC(=O)CNC1=O)C(=O)N[C@@H](CO)C(=O)N4)NC(=O)[C@@H]1CCCN1C(=O)[C@H]([C@@H](C)CC)NC(=O)[C@H](C(C)C)NC(=O)CNC(=O)[C@H](CC(N)=O)NC(=O)[C@H](CCCNC(=N)N)NC(=O)[C@H](Cc1ccc(O)cc1)NC3=O)C(=O)N[C@@H](C(C)C)C(=O)N[C@@H](Cc1ccccc1)C(=O)N[C@@H]([C@@H](C)CC)C(=O)N1CCC[C@H]1C(=O)N2 [caripe 10] (cyclo(CFSTVIGCSCKNKVCYRNGVIPCGESCVFIP); disulfide 1-15, 8-23, 10-27)",EC50,mouse KOR [2]; EC50 cAMP inhibition,60.2 µM and ~60 µM
same,Emax,mouse KOR [2],144 ± 12%
same,displacement of [3H]-DPN by cyclotides,mouse KOR [1],strongest effect
same,Ki,mouse KOR [4],1.2 ± 0.3 µM
"CC[C@H](C)[C@H](NC(=O)[C@H](CCCNC(=N)N)NC(=O)[C@H](CCCNC(=N)N)NC(=O)[C@H](CC(C)C)NC(=O)[C@H](Cc1ccccc1)NC(=O)CNC(=O)CNC(=O)[C@@H](N)Cc1ccc(O)cc1)C(=O)N[C@@H](CCCNC(=N)N)C(=O)N1CCC[C@H]1C(=O)N[C@@H](CCCCN)C(=O)N[C@@H](CC(C)C)C(=O)N[C@@H](CCCCN)C(N)=O [dyn A1–13, Dyn A1–13 amide, reference compound]",cAMP inhibition Emax ± SD,mouse KOR [2],115.5 ± 20.0% and 122.0 ± 21.6% and 133.2 ± 41.9 % and 160.3 ± 47.4 % and 158.8 ± 54.0 %
same,EC50,mouse KOR [2]; read-out: cAMP inhibition EC50 ± SD,0.0088 ± 0.0024 µM
same,changes in cAMP levels,[6],no changes in cAMP levels were observed
same,Ki,mouse KOR [1]; read-out: Ki ± SD,0.0004 µM and 0.0003 µM
same,EC50,mouse KOR [5]; read-out: EC50 β-arrestin-2 recruitment,0.159 ± 0.0924 µM
